Test results as given in patent publication US8367700B2, “Substituted 4-(1.2,3,4-tetrahydroisoquinolin-2-yl)-4-oxobutyric acid amide as KCNQ2/3 modulators” (Gruenenthal GmbH, priority 2008, dated 2013).

Assays:
hKCNQ2/3 [1] = biological target: T1, hKCNQ2/3 (Homo sapiens, UniProt O43525+O43526); experiment: Voltage-clamp (patch-clamp) measurements on stably transfected hKCNQ2/3 CHO-K1 cell line; format: cell-based; parameters: expressed in transfected cells; host or cells: CHO-K1 (stably transfected); conditions: 10 μM test substance at −40 mV, current increase normalised against retigabine (10 μM), read-out: Patch-clamp % Efficacy @ 10 μM (Retigabine = 100%)
Protocol: Voltage-Clamp Measurements
In order to confirm a KCNQ2/3 agonistic action of the substances electrophysiologically, patch-clamp measurements (Hamill O P, Marty A, Neher E, Sakmann B, Sigworth F J: Improved patch-clamp techniques for high-resolution current recording from cells and cell-free membrane patches, Pfluger's Arch. 1981 August; 391(2):85-100) were performed in voltage-clamp mode on a stably transfected hKCNQ2/3 CHO-K1 cell line. After formation of the gigaseal the cells were first clamped at a holding potential of −60 mV. Depolarising voltage jumps up to a potential of +20 mV were then applied (increment: 20 mV, duration: 1 second) in order to confirm the functional expression of KCNQ2/3-typical currents. The substances were tested at a potential of −40 mV. First of all the current increase induced by retigabine (10 μM) at −40 mV was recorded on each cell as a positive control. After completely washing out the retigabine effect (duration: 80 s) the test substance (10 μM) was applied. The current increase induced by the test substance was normalised against the retigabine effect and stated as the relative efficacy (see below).

hKCNQ2/3 [2] = biological target: T1, hKCNQ2/3; experiment: Fluorescence assay using a voltage-sensitive dye (fluorimetry); format: cell-based; parameters: expressed in transfected cells; host or cells: CHO-K1; conditions: CHO-K1 cells expressing KCNQ2/3; for Emax at 1 µM / Emax at 10 µM: relative to retigabine = 100%; for Emax at 1 µM: read-out: Fluorimetry % Efficacy @ 1 μM (Retigabine = 100%); for Emax at 10 µM: read-out: Fluorimetry % Efficacy @ 10 μM (Retigabine = 100%)
Protocol: Pharmacological Experiments Fluorescence Assay Using a Voltage-Sensitive Dye
Human CHO-K1 cells expressing KCNQ2/3 channels are cultivated adherently at 37° C., 5% CO2 and 95% humidity in cell culture bottles (e.g. 80 cm^2 TC flasks, Nunc) with DMEM-high glucose (Sigma Aldrich, D7777) including 10% FCS (PAN Biotech, e.g. 3302-P270521) or alternatively MEM Alpha Medium (1×, liquid, Invitrogen, #22571), 10% foetal calf serum (FCS) (Invitrogen, #10270-106, heat-inactivated) and the necessary selection antibiotics.
Before being sown out for the measurements, the cells are washed with a 1×DPBS buffer without Ca^2+/Mg^2+ (e.g. Invitrogen, #14190-094) and detached from the bottom of the culture vessel by means of Accutase (PAA Laboratories, #L11-007) (incubation with Accutase for 15 min at 37° C.). The cell count then present is determined using a CASY™ cell counter (TCC model, Scharfe System) in order subsequently to apply 20,000 to 30,000 cells/well/100 μl of the described nutrient medium, depending on density optimisation for the individual cell line, to 96-well measuring plates of the Corning™ CeIIBIND™ type (flat clear-bottom black polystyrene microplates, #3340).
Incubation is then carried out for one hour at room temperature, without gassing or adjusting the humidity, followed by incubation for 24 hours at 37° C., 5% CO2 and 95% humidity.
The voltage-sensitive fluorescent dye from the Membrane Potential Assay Kit (Red™ bulk format part R8123 for FLIPR, MDS Analytical Technologies™) is prepared by dissolving the contents of a vessel of Membrane Potential Assay Kit Red Component A in 200 ml of extracellular buffer (ES buffer, 120 mM NaCl, 1 mM KCl, 10 mM HEPES, 2 mM CaCl2, 2 mM MgCl2, 10 mM glucose; pH 7.4). After removal of the nutrient medium, the cells are washed with 200 μl of ES buffer, then covered with a layer of 100 μl of the dye solution prepared above and incubated for 45 min at room temperature with exclusion of light.
The fluorescence measurements are carried out with a BMG Labtech FLUOstar™ BMG Labtech NOVOstar™ or BMG Labtech POLARstar™ instrument (525 nm excitation, 560 nm emission, bottom-read mode). After incubation of the dye, 50 μl of the substances to be tested in the desired concentrations, or 50 μl of ES buffer for control purposes, are introduced into separate cavities of the measuring plate and incubated for 30 min at room temperature whilst being shielded from light. The fluorescence intensity of the dye is then measured for 5 min and the fluorescence value F1 of each well is thus determined at a given, constant time. 15 μl of a […] KCl solution ([…]) are then added to each well. The change in fluorescence is subsequently measured until all relevant measured values have been obtained (mainly 5-30 min). At a given time after KCl application, a fluorescence value F2 is determined, in this case at the time of the fluorescence peak.
For calculation, the fluorescence intensity F2 is compared with the fluorescence intensity F1, and the agonistic activity of the target compound on the potassium channel is determined therefrom. F2 and F1 are calculated as follows: […]
In order to determine whether a substance has an agonistic activity,
[formula] for example, can be compared with
[formula] of control cells.
[formula] is determined by adding to the reaction batch only the buffer solution instead of the substance to be tested, determining the value F1K of the fluorescence intensity, adding the potassium ions as described above and measuring a value F2K of the fluorescence intensity. Then F2K and F1K are calculated as follows: […]
A substance has an agonistic activity on the potassium channel if
[formula] is greater than
Independently of the comparison of
[formula] it is also possible to conclude that a target compound has an agonistic activity if an increase in
[formula] is to be observed as the dosage of the target compound increases. […]

rat = experiment: Formalin test in the rat; format: in vivo, Sprague Dawley rats; conditions: phase II (21-27 min after formalin administration)
Protocol: The formalin test (Dubuisson, D. and Dennis, S. G., 1977, Pain, 4, 161-174) is a model for acute and chronic pain. In the tests described here, the chronic pain component (phase II of the formalin test; time interval 21-27 min after formalin administration) was analysed.
A single formalin injection into the dorsal side of one rear paw was used to induce a biphase nociceptive response in experimental animals allowed to move freely, and the response was recorded by observation of three clearly distinguishable behaviour patterns.
Formalin is administered subcutaneously in a volume of 50 μl and a concentration of 5% into the dorsal side of the right rear paw of each animal. The vehicle and the substances to be tested are administered intravenously 5 minutes before or orally 30 minutes before the formalin injection.
The specific behavioural changes, such as lifting and shaking the paw, shifting of weight by the animal and biting and licking responses, are observed and recorded continuously for 60 minutes after formalin administration. The behavioural changes are weighted differently (score 0-3) and a pain rate (PR) calculated using the formula below: PR=[(T0×0)+(T1×1)+(T2×2)+(T3×3)/180.
Sprague Dawley rats (Janvier, Belgium) are used as the phylum. The weight of the animals is between 180 and 200 g. The group size was n=10.

T1 sequence (O43526 whole entry): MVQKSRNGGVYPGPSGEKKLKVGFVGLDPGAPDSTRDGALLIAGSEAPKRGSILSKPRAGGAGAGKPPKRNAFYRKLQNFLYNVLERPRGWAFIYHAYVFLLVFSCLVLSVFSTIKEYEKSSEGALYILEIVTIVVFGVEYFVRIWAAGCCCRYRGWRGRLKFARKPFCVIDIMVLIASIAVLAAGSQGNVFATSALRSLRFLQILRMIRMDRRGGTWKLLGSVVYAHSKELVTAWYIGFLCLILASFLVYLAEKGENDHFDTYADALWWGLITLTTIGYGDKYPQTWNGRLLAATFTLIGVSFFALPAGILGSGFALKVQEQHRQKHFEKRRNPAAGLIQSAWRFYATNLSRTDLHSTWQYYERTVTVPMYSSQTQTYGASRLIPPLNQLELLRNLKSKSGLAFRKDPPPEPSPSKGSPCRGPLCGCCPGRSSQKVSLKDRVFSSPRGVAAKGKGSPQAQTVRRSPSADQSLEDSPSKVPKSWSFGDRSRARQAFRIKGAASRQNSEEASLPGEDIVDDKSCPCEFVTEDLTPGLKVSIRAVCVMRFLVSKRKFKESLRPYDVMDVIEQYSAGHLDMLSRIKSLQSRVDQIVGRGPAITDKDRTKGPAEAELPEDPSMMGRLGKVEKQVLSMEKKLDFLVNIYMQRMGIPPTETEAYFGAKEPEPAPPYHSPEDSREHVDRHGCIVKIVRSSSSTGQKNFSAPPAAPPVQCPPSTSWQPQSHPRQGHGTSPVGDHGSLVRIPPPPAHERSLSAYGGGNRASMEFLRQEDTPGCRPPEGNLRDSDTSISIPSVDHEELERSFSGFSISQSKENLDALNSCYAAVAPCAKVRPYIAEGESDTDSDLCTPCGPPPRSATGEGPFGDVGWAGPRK
T1 sequence (O43525 whole entry): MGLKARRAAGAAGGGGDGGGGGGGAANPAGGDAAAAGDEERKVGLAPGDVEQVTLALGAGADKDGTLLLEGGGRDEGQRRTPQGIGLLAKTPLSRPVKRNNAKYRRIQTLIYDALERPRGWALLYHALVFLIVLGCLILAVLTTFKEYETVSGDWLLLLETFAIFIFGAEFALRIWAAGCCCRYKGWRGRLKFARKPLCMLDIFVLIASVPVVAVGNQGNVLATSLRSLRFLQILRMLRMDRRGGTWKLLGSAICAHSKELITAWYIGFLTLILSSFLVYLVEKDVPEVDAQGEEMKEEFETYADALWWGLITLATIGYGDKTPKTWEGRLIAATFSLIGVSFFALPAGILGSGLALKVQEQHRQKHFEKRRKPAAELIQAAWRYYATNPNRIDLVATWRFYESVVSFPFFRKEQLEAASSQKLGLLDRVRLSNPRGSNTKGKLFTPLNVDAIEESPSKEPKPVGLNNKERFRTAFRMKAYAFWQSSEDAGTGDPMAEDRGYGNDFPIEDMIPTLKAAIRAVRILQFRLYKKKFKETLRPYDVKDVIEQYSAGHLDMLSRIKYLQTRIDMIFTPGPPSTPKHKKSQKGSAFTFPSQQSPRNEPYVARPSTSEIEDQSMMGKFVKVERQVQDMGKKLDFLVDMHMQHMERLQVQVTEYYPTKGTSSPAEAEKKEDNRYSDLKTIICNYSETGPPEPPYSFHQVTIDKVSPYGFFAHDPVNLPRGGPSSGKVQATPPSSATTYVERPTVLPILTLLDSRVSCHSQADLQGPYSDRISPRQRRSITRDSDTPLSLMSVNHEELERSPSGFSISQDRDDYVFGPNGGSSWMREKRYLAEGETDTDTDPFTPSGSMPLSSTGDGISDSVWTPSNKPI

SMILES	EC50 (hKCNQ2/3 [2]) [nM]	Emax at 1 µM (hKCNQ2/3 [2]) [%]	also measured
CC1c2ccccc2CCN1C(=O)CCC(=O)NCc1cccc(C(F)(F)F)c1 (stereo not drawn) [Example compound 2, 4-(1-Methyl-3,4-dihydro-1H-isoquinolin-2-yl)-4-oxo-N-[[3-(trifluoromethyl)phenyl]methyl]butyric acid amide]	10400	–	Emax at 10 µM (hKCNQ2/3 [1]): 17%
O=C(CCC(=O)N1CCc2ccccc2C1c1cccs1)NCc1cccc(C(F)(F)F)c1 (stereo not drawn) [Example compound 3, 4-Oxo-4-(1-thien-2-yl-3,4-dihydroisoquinolin-2(1H)-yl)-N-(3-(trifluoromethyl)benzyl)butyric acid amide]	1050	76	Emax at 10 µM (hKCNQ2/3 [2]): 134%
O=C(CCC(=O)N1CCc2ccccc2C1c1ccncc1)NCc1cccc(C(F)(F)F)c1 (stereo not drawn) [Example compound 4, 4-Oxo-4-[1-(4-pyridyl)-3,4-dihydro-1H-isoquinolin-2-yl]-N-[[3-(trifluoromethyl)phenyl]methyl]butyric acid amide]	–	11	Emax at 10 µM (hKCNQ2/3 [2]): 35%
O=C(CCC(=O)N1CCc2ccc(F)cc2C1c1ccccc1)NCc1cccc(C(F)(F)F)c1 (stereo not drawn) [Example compound 5, 4-(7-Fluoro-1-phenyl-3,4-dihydroisoquinolin-2(1H)-yl)-4-oxo-N-(3-(trifluoromethyl)benzyl)butyric acid amide]	83	69	–
O=C(CCC(=O)N1CCc2c(F)cccc2C1c1ccccc1)NCc1cccc(C(F)(F)F)c1 (stereo not drawn) [Example compound 6, 4-(5-Fluoro-1-phenyl-3,4-dihydro-1H-isoquinolin-2-yl)-4-oxo-N-[[3-(trifluoromethyl)phenyl]methyl]butyric acid amide]	75	73	–
O=C(CCC(=O)N1CCc2ccccc2C1c1ccccc1)NCc1ccccc1C(F)(F)F (stereo not drawn) [Example compound 7, 4-Oxo-4-(1-phenyl-3,4-dihydro-1H-isoquinolin-2-yl)-N-[[2-(trifluoromethyl)phenyl]methyl]butyric acid amide]	–	12	–
O=C(CCC(=O)N1CCc2ccccc2C1c1ccccc1)NCc1ccc(C(F)(F)F)cc1 (stereo not drawn) [Example compound 8, 4-Oxo-4-(1-phenyl-3,4-dihydro-1H-isoquinolin-2-yl)-N-[[4-(trifluoromethyl)phenyl]methyl]butyric acid amide]	–	63	–
CC1CN(C(=O)CCC(=O)NCc2cccc(C(F)(F)F)c2)C(c2ccccc2)c2ccccc21 (stereo not drawn) [Example compound 9, 4-(4-Methyl-1-phenyl-3,4-dihydro-1H-isoquinolin-2-yl)-4-oxo-N-[[3-(trifluoromethyl)phenyl]methyl]butyric acid amide]	116	51	–
CC1(C)CN(C(=O)CCC(=O)NCc2cccc(C(F)(F)F)c2)C(c2ccccc2)c2ccccc21 (stereo not drawn) [Example compound 10, 4-(4,4-Dimethyl-1-phenyl-1,3-dihydroisoquinolin-2-yl)-4-oxo-N-[[3-(trifluoromethyl)phenyl]methyl]butyric acid amide]	135	45	–
COc1ccc2c(c1)C(c1ccccc1)N(C(=O)CCC(=O)NCc1cccc(C(F)(F)F)c1)CC2 (stereo not drawn) [Example compound 11, 4-(7-Methoxy-1-phenyl-3,4-dihydro-1H-isoquinolin-2-yl)-4-oxo-N-[[3-(trifluoromethyl)phenyl]methyl]butyric acid amide]	–	30	–
COc1cccc2c1CCN(C(=O)CCC(=O)NCc1cccc(C(F)(F)F)c1)C2c1ccccc1 (stereo not drawn) [Example compound 12, 4-(5-Methoxy-1-phenyl-3,4-dihydro-1H-isoquinolin-2-yl)-4-oxo-N-[[3-(trifluoromethyl)phenyl]methyl]butyric acid amide]	–	-7	–
CC1Cc2ccccc2C(c2ccccc2)N1C(=O)CCC(=O)NCc1cccc(C(F)(F)F)c1 (stereo not drawn) [Example compound 13, 4-(3-Methyl-1-phenyl-3,4-dihydro-1H-isoquinolin-2-yl)-4-oxo-N-[[3-(trifluoromethyl)phenyl]methyl]butyric acid amide]	–	29	–
Cc1ccccc1C1c2ccccc2CCN1C(=O)CCC(=O)NCc1cccc(C(F)(F)F)c1 (stereo not drawn) [Example compound 67, 4-Oxo-4-(1-(2-tolyl)-3,4-dihydro-1H-isoquinolin-2-yl)-N-[[3-(trifluoromethyl)-phenyl]methyl]butyric acid amide]	215	112	–
Cc1ccccc1C1c2ccccc2CCN1C(=O)CCC(=O)NCc1ccc(C(F)(F)F)cc1 (stereo not drawn) [Example compound 68, 4-Oxo-4-(1-(2-tolyl)-3,4-dihydro-1H-isoquinolin-2-yl)-N-[[4-(trifluoromethyl)-phenyl]methyl]butyric acid amide]	149	56	–
Cc1ccccc1C1c2ccccc2CCN1C(=O)CCC(=O)NCc1ccccc1C(F)(F)F (stereo not drawn) [Example compound 69, 4-Oxo-4-(1-(2-tolyl)-3,4-dihydro-1H-isoquinolin-2-yl)-N-[[2-(trifluoromethyl)-phenyl]methyl]butyric acid amide]	158	67	–
O=C(CCC(=O)N1CCn2cccc2C1c1ccccc1)NCc1cccc(C(F)(F)F)c1 (stereo not drawn) [Example no. 2 in WO2008/046582, reference compound]	–	–	Formalin test rat i.v. @ 4.64 mg/kg % Reduction of nociceptive behaviour (rat): No effect
